According to patent publication US5859010A, “Factor VII -binding reagent” (Novo Nordisk A/S, priority 1996, dated 1999):

What was measured:
[1] = biological target: T1, Factor VIIa/tissue factor (Homo sapiens, UniProt P08709); test: FVIIa/tissue factor activity measured with S2288 in presence and absence of Zn and chelator; type: biochemical; settings: 10 nM FVIIa, 50 nM tissue factor
T1 construct: Single-chain factor VII may be converted to two-chain factor VIIa
Experimental: The activity of 10 nM FVIIa and 50 nM tissue factor in the presence and absence of Zn and chelator was measured with S2288 as described in Example 4

[2] = test system: factor VIIa-tissue factor complex; test: Effect of zinc and calcium ions on the activity of the factor VIIa-tissue factor complex (FIG. 1B); type: biochemical; settings: presence of tissue factor (FIG. 1B)
Text: (§1) An effect of Ca^2+ ions is not easily contemplated in this model since the binding site for Ca^2+ in the serine protease domain is not nearby. […] Since histidines are prominant in zinc coordination we further propose that one or more of the residues of His 211, His 216 and His 256 are involved in the binding of Zn^2+ ions to factor VIIa.

factor VIIa = test: Effect of zinc and calcium ions on the activity of factor VIIa (FIG. 1A); type: biochemical; settings: absence of tissue factor (FIG. 1A)
Text: as §1

[3] = blood; cited from earlier work

T1 sequence (P08709 213-466 limits assumed): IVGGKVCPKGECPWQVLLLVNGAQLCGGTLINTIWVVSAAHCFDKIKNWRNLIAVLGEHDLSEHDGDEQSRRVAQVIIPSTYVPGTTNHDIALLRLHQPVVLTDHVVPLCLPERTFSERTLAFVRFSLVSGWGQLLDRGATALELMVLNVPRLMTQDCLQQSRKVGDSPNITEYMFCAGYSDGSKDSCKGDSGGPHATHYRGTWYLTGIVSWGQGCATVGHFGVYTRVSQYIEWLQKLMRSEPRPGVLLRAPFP
T1 sequence (P08709 61-212 partner limits assumed): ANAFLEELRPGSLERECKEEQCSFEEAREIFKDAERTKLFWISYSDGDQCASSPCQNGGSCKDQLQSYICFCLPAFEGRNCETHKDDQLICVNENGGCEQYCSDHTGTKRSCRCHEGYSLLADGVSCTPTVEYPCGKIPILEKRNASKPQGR
T1 sequence (P13726 33-295 partner): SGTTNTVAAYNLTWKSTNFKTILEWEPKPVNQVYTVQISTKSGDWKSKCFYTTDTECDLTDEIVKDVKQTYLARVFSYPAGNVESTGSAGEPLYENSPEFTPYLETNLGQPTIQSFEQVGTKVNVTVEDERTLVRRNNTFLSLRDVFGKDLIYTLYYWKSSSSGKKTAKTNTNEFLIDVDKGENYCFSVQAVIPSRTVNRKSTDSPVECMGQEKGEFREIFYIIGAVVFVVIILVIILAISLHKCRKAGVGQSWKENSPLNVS

O=C(NO)c1cc(C(=O)NO)[nH]n1 [NNC (28)]
activity at 50 µM ([1]; 100 μM ZnCl2, 50 μM compound): 55% | activity at 50 µM ([1]; No ZnCl2, 50 μM compound): 98%

[Zn+2] [Zn^2+]
inhibitory effect of Zn2+ on factor VIIa activity in presence of Ca2+ [2]: partly abolished by Ca^2+ ions in a competitive manner | inhibitory effect of Zn2+ on factor VIIa activity in presence of Ca2+ (factor VIIa): partly abolished by Ca^2+ ions in a competitive manner

heparin
half-life [3]: approximately 80 minutes
